Data reported in patent publication US20250281479A1, “TREATMENT OF CAVERNOUS ANGIOMAS WITH A 4-SUBSTITUTED PIPERIDINE DERIVATIVE” (Neurelis, Inc., priority 2024, published 2025).

Legend:
ROCK 2 = ROCK 2 (Homo sapiens, UniProt O75116); test: ROCK 2 inhibition by metabolites; type: biochemical
[1] = nonclinical pharmacokinetics after a single oral dose; type: in vivo, mice, rats, and monkeys
Experimental: (§1) Exposure to NRL-2017 was similar or greater (up to 5-fold) than that to NRL-1049 in rats when dosed once a day (QD). In monkeys, exposure to NRL-2017 was also greater (up to 33-fold) than that to NRL-1049. When rats were dosed twice a day (BID) for 14 days, there was a decrease in formation of NRL-2017 with exposure to NRL-2017 lower than that of NRL-1049 (ratio as low as 0.06). […] NRL-1049 bound to human serum albumin and human alpha1-acid glycoprotein. […] There was also inhibition of P-glycoprotein (P-gp) (only CACO-2 cells), organic anion transporting polypeptides (OATP) OATP1B1, OATP1B3 and OAT3 (IC50, >100 μM), but no effect on P-gp (MDCK2 cells), breast cancer resistance protein (BCRP), bile salt export pump (BSEP), or MATE2-K. NRL-1049 is a substrate for P-gp, not BCRP. […] This conclusion will be revisited when human pharmacokinetic (PK) data becomes available.

[2] = first-in-human single ascending dose and food-effect study, plasma pharmacokinetics; type: in vivo; details: for Tmax: po; for Thalf: mean
Source text: This was a first-in-human, single center, randomized, double-blind, placebo-controlled, single ascending dose (SAD) study, including a food-effect assessment, in healthy male and female subjects. Up to 44 subjects were included in the study.
The study consisted of 4 sequential cohorts of 8 subjects each (6 active and 2 placebo), randomly assigned to receive a single oral dose of NRL-1049 or matching-placebo under fasting state on Day 1 (See Table 2). In each cohort, a sentinel group of 2 subjects (1 active and 1 placebo) were dosed at least 24 hours prior to enrolling the remaining subjects of the cohort, contingent on the safety profile observed during sentinel dosing, as defined by medical judgment.
Subjects were admitted to the clinical research unit (CRU) on Day −1. On Day 1, following an overnight fast, subjects received a single oral dose of their assigned study treatment. Safety, PK, and exploratory biomarker assessments were performed prior to dosing and at assigned time points during study confinement. Subjects were permitted to leave the CRU following the completion of the 48-hour PK postdose sampling and safety assessments. A safety follow-up phone call was performed on Day 8 (±1 day).
Furthermore, a food-effect assessment was integrated into Cohort 3, in which a single oral 150 mg dose of NRL-1049 or placebo was administered to 12 subjects (10 active and 2 placebo) under fed state in Period 2 (refer to schedule of food-effect Cohort 3 in Table 3). After completion of Period 1 and a washout period of at least 14 days, Cohort 3 subjects repeated the screening procedures to ensure they still met the inclusion and exclusion criteria prior to readmission to the CRU for Period 2. Subjects dosed in Period 1 and who returned for Period 2 (a maximum of 6 active and 2 placebo) were administered the same single oral dose in Period 2 under fed state. In addition, at least 4 new subjects were enrolled in Period 2 only, in order to dose a total of 12 subjects (10 active and 2 placebo), in a 1:1 ratio of male to female. If a subject dosed in Period 1 was unable to return for Period 2, a new subject was enrolled to ensure dosing a total of 12 subjects in Period 2. Newly enrolled subjects only received the study drug in the fed state, and as such were not required to undergo Period 1 activities. There was no sentinel approach in Period 2.
Study drugs (NRL-1049 or placebo) were administered in the morning. The date and time of each dose was recorded. For each subject, all scheduled postdose activities and assessments were performed relative to the time of study drug administration. An oral dose of the assigned formulation was administered to subjects with approximately 240 mL of water at ambient temperature. The capsule(s) were swallowed whole and not chewed or broken. Food and fluid intake other than water were controlled for each confinement period and all subjects. In Cohorts 1, 2, 3 (Period 1), and 4, water was permitted as needed except from 1 hour predose until 1 hour after dosing. In Period 2 of Cohort 3, water was permitted as needed throughout the confinement period. For cohorts under fasting state, subjects were required to fast (abstain from food) for at least 10 hours prior to dosing and for at least 4 hours following dosing. In Period 2 of the food-effect cohort only, following an overnight fast of at least 10 hours, subjects received a standardized high-fat, high-calorie meal 30 minutes prior to study drug administration. An example meal would consist of 2 eggs fried in butter, 2 strips of bacon, 2 slices of toast with butter, 4 ounces of hash brown potatoes, and 8 ounces of whole milk. […] Subjects had to eat the total content of this meal in 30 minutes or less. For all cohorts, a standardized lunch was served at least 4 hours after dosing. A supper, light snack, and other meals were served at appropriate times thereafter, but not until after 9 hours postdose. […]

[3] = tissue distribution and excretion; type: in vivo
Experimental: as §1

[4] = nonclinical exposure to NRL-2017 versus NRL-1049 in rats; type: in vivo
Experimental: as §1

[5] = nonclinical exposure to NRL-2017 versus NRL-1049 in monkeys; type: in vivo
Experimental: as §1

[6] = 150 mg NRL-1049, fed compared to fasting state
[7] = 25 to 250 mg NRL-1049, fasting conditions

ROCK 2, sequence (O75116 whole entry, species assumed): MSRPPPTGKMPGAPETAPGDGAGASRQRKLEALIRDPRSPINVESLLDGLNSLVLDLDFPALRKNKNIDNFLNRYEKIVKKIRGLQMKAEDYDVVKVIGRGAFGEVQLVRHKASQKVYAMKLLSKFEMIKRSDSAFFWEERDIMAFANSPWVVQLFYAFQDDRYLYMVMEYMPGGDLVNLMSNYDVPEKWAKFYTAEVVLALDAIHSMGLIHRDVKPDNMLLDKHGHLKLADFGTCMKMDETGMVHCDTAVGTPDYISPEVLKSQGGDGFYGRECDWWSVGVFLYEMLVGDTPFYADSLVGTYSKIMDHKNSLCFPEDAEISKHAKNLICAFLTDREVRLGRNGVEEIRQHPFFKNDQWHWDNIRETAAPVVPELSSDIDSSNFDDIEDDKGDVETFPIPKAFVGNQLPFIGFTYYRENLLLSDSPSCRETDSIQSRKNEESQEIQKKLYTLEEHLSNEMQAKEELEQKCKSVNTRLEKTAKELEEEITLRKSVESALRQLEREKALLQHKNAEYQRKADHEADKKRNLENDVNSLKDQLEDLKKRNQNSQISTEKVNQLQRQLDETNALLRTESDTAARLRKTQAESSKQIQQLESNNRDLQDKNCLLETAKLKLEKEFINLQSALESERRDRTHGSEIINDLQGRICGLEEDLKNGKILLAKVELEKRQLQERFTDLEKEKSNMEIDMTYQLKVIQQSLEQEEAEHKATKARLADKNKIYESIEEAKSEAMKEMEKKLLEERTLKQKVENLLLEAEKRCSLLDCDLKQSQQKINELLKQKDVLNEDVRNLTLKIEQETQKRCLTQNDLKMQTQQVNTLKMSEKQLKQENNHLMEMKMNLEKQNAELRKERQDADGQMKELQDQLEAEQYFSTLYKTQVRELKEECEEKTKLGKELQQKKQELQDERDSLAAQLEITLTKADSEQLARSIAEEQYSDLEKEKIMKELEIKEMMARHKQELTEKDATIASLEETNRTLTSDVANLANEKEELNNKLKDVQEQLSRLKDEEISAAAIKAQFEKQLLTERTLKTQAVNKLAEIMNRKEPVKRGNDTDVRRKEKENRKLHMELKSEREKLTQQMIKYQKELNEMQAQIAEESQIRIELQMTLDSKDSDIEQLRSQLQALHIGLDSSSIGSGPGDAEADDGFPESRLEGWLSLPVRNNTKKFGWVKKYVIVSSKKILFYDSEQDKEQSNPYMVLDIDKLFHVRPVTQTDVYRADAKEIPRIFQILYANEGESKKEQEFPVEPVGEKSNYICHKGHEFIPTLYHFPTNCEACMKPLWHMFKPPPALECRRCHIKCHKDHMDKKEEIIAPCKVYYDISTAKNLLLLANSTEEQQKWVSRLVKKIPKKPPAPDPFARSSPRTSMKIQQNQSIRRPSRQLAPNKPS

C[C@@H](N)C1CCN(S(=O)(=O)c2cccc3c(O)nccc23)CC1 [NRL-2017, 1-hydroxy NRL-1049]
ROCK 2 inhibition (ROCK 2): potent ROCK 2 inhibitor | exposure versus dose ([1]; in vivo): greater than dose-proportional | half-life ([1]; mouse, rat, monkey, plasma, single oral dose of NRL-1049, range over mice, rats, and monkeys, read-out: elimination phase half-life (t½)): 0.58 to 5.7 h | Tmax ([1]; mouse, rat, monkey, plasma, single oral dose of NRL-1049, range over mice, rats, and monkeys, read-out: time to maximum plasma concentration (Tmax)): 0.5 to 4 h | food effect on mean AUC0-T and AUCinf [2, 6]: remained consistent | food effect on mean Cmax [2, 6]: decreased | food effect on mean elimination half-life [2, 6]: remained consistent | manner of increase of AUC0-T with dose [2, 7]: greater than dose proportional | manner of increase of AUC0-Tmax with dose [2, 7]: dose proportional | manner of increase of AUCinf with dose [2, 7]: greater than dose proportional | manner of increase of Cmax with dose [2, 7]: greater than dose proportional | time up to which mean concentrations were quantifiable ([2]; all dose levels of 25 to 250 mg NRL-1049 fasting and 150 mg fed): up to 48 hours | AUC(0-t) ([2]; both sexes, human, plasma, oral, range over dose range 25 to 250 mg NRL-1049, fasting state, read-out: mean AUC0-T): 478 to 6690 ng·h/mL | AUC ([2]; both sexes, human, plasma, oral, range over dose range 25 to 250 mg NRL-1049, fasting state, read-out: mean AUC0-Tmax): 35.6 to 457 ng·h/mL | AUC(0-inf) ([2]; both sexes, human, plasma, oral, range over dose range 25 to 250 mg NRL-1049, fasting state, read-out: mean AUCinf): 546 to 7040 ng·h/mL | Cmax ([2]; both sexes, human, plasma, oral, range over dose range 25 to 250 mg NRL-1049, fasting state, read-out: mean Cmax): 54.2 to 1520 ng/mL | half-life ([2]; both sexes, human, plasma, oral, range over the dose groups 25 to 250 mg NRL-1049, fasting state, read-out: mean elimination half-life): 12.3 to 17.3 h | Tmax ([2]; both sexes, human, plasma, 150 mg, plasma metabolite NRL-2017, median, 150 mg NRL-1049 single oral, Fasted, Cohort 3, N = 6, read-out: Tmax): 1.13 h | Tmax ([2]; both sexes, human, plasma, 150 mg, plasma metabolite NRL-2017, median, 150 mg NRL-1049 single oral, Fed, Cohort 3, N = 10, read-out: Tmax): 1.75 h | Tmax ([2]; both sexes, human, plasma, range over single oral doses of 25 to 250 mg NRL-1049, fasting state, read-out: median time to maximum observed plasma concentration (Tmax)): 0.88 to 1.63 h | Thalf ([2]; plasma metabolite NRL-2017, 150 mg NRL-1049 single oral, Fasted, Cohort 3, N = 6): 12.28 h | Thalf ([2]; plasma metabolite NRL-2017, 150 mg NRL-1049 single oral, Fed, Cohort 3, N = 10): 12.37 h | tissue distribution ([3]; brain, aorta, inferior vena cava): distributed to brain and vascular tissue | excretion ([3]; in vivo): excreted in urine | exposure to NRL-2017 relative to NRL-1049 ([4]; rats dosed once a day (QD), similar or greater): up to 5 fold | exposure ratio NRL-2017 to NRL-1049 ([4]; rats dosed twice a day (BID) for 14 days): ≥ 0.06 | exposure to NRL-2017 relative to NRL-1049 [5]: up to 33 fold
